Data from the supplement of paper PMC10307832.

Key:
Assay in all cases: relative viability (nuclei count vs DMSO), 5 days (fraction); higher = more cells survive
Sunitinib + Palbociclib = compound: CCN(CC)CCNC(=O)c1c(C)[nH]c(/C=C2\C(=O)Nc3ccc(F)cc32)c1C [Sunitinib] + CC(=O)c1c(C)c2cnc(Nc3ccc(N4CCNCC4)cn3)nc2n(C2CCCC2)c1=O [Palbociclib] (partner 0.5 µM)
How it was run: (§1)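 Five library-drug doses in √10 steps were combined with a fixed anchor-drug dose, or a single drug was given alone, by pin tool to lung cancer cell lines in 1536-well plates the day after seeding. Nuclei were stained and counted after 5 days. Relative viability is the nuclei count in treated wells over that in vehicle wells, taken as the median of duplicate plates.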

Sunitinib + Pemetrexed = compound: CCN(CC)CCNC(=O)c1c(C)[nH]c(/C=C2\C(=O)Nc3ccc(F)cc32)c1C [Sunitinib] + Nc1nc2[nH]cc(CCc3ccc(C(=O)N[C@@H](CCC(=O)O)C(=O)O)cc3)c2c(=O)[nH]1 [Pemetrexed] (partner 0.2 µM)
How it was run: as §1

Sunitinib + Olaparib = compound: CCN(CC)CCNC(=O)c1c(C)[nH]c(/C=C2\C(=O)Nc3ccc(F)cc32)c1C [Sunitinib] + O=C(c1cc(Cc2n[nH]c(=O)c3ccccc23)ccc1F)N1CCN(C(=O)C2CC2)CC1 [Olaparib] (partner 8 µM)
How it was run: as §1

Sunitinib + Alpelisib = compound: CCN(CC)CCNC(=O)c1c(C)[nH]c(/C=C2\C(=O)Nc3ccc(F)cc32)c1C [Sunitinib] + Cc1nc(NC(=O)N2CCC[C@H]2C(N)=O)sc1-c1ccnc(C(C)(C)C(F)(F)F)c1 [Alpelisib] (partner 2 µM)
How it was run: as §1

Cell Line | relative viability (Sunitinib + Palbociclib; first compound 0.02 µM) | relative viability (Sunitinib + Palbociclib; first compound 0.06325 µM) | relative viability (Sunitinib + Palbociclib; first compound 0.2 µM) | relative viability (Sunitinib + Palbociclib; first compound 0.6325 µM) | relative viability (Sunitinib + Palbociclib; first compound 2 µM) | relative viability (Sunitinib + Pemetrexed; first compound 0.02 µM) | relative viability (Sunitinib + Pemetrexed; first compound 0.06325 µM) | relative viability (Sunitinib + Pemetrexed; first compound 0.2 µM) | relative viability (Sunitinib + Pemetrexed; first compound 0.6325 µM) | relative viability (Sunitinib + Pemetrexed; first compound 2 µM) | relative viability (Sunitinib + Olaparib; first compound 0.02 µM) | relative viability (Sunitinib + Olaparib; first compound 0.06325 µM) | relative viability (Sunitinib + Olaparib; first compound 0.2 µM) | relative viability (Sunitinib + Olaparib; first compound 0.6325 µM) | relative viability (Sunitinib + Olaparib; first compound 2 µM) | relative viability (Sunitinib + Alpelisib; first compound 0.02 µM) | relative viability (Sunitinib + Alpelisib; first compound 0.2 µM) | relative viability (Sunitinib + Alpelisib; first compound 2 µM) | relative viability (Sunitinib + Alpelisib; first compound 0.06325 µM) | relative viability (Sunitinib + Alpelisib; first compound 0.6325 µM)
201T | 0.347 | 0.363 | 0.336 | 0.352 | 0.378 | 0.32 | 0.325 | 0.356 | 0.301 | 0.355 | 0.843 | 0.845 | 0.855 | 0.865 | 0.853 | 1.04 | 1.06 | 1.02 | – | –
A549 | – | – | – | – | – | – | – | – | – | – | 0.282 | 0.326 | 0.348 | 0.484 | 0.383 | 0.686 | 0.884 | 0.776 | 0.825 | 0.872
A-427 | 0.508 | 0.544 | 0.568 | 0.545 | 0.546 | 0.993 | 1 | 0.95 | 0.997 | 1.01 | 0.701 | 0.721 | 0.832 | 0.848 | 0.771 | 1.06 | 1.15 | 1.05 | 1.06 | 1.08
ABC-1 | 0.623 | 0.57 | 0.609 | 0.763 | 0.724 | – | – | – | – | – | 0.728 | 0.919 | 0.868 | 1.06 | 0.966 | 1.08 | 1.2 | 0.837 | 0.994 | 1.26
BEN | 0.487 | 0.467 | 0.452 | 0.445 | 0.496 | 0.812 | 0.862 | – | 0.742 | 0.74 | 1.02 | 1.03 | 1.14 | 1.08 | 0.956 | 0.898 | 1.04 | 0.955 | 1.1 | 0.991
CAL-12T | 0.416 | 0.427 | 0.46 | 0.493 | 0.473 | 1.06 | 1.17 | 1.17 | – | 1.34 | 0.718 | 0.755 | 0.791 | 0.817 | 0.772 | 0.957 | 1.25 | 1.14 | 1.19 | 1.43
COR-L23 | 0.305 | 0.402 | 0.324 | 0.295 | 0.363 | 0.207 | 0.196 | 0.196 | 0.199 | 0.216 | 0.317 | 0.349 | 0.361 | 0.385 | 0.351 | 0.897 | 0.935 | 0.891 | 0.724 | 0.917
COR-L 105 | 0.431 | 0.399 | 0.436 | 0.405 | 0.458 | 1.08 | 1.01 | 1.1 | 1.14 | 1.22 | 0.591 | 0.695 | 0.881 | 0.651 | 0.837 | 0.925 | 1.04 | 0.829 | 0.835 | 1.23
ChaGo-K-1 | 0.919 | 0.918 | 0.945 | 0.933 | 0.801 | 0.263 | 0.268 | 0.258 | 0.255 | 0.258 | 0.483 | 0.466 | 0.414 | 0.435 | 0.441 | – | – | – | – | –
EKVX | 0.423 | 0.453 | 0.508 | 0.403 | 0.463 | 0.373 | 0.383 | 0.425 | 0.416 | 0.406 | 0.941 | 0.991 | 0.952 | 0.957 | 0.97 | 0.907 | – | 0.909 | – | 0.996
EMC-BAC-2 | 0.505 | 0.534 | 0.526 | 0.556 | 0.579 | 0.427 | 0.426 | 0.472 | 0.481 | 0.464 | 0.462 | 0.52 | 0.539 | 0.529 | 0.582 | 0.712 | 0.901 | 0.72 | 0.742 | 0.791
EPLC-272H | 0.324 | 0.303 | 0.316 | 0.256 | 0.298 | 0.39 | 0.298 | 0.314 | 0.42 | 0.363 | 0.764 | 0.998 | 1.01 | 0.746 | 0.388 | 0.885 | 1 | 0.729 | 0.668 | 1
H3255 | 0.313 | 0.299 | 0.302 | 0.311 | 0.331 | 0.557 | 0.558 | 0.567 | 0.552 | 0.612 | 0.541 | 0.605 | 0.6 | 0.593 | 0.56 | 0.696 | 0.776 | 0.707 | 0.756 | 0.891
HARA | 0.268 | 0.257 | 0.201 | 0.246 | 0.275 | 0.26 | 0.274 | 0.241 | 0.222 | 0.263 | 0.718 | 0.966 | 0.801 | 0.786 | 0.7 | 0.816 | 0.979 | 0.743 | 0.947 | –
HCC-15 | 0.707 | 0.737 | 0.792 | 0.696 | 0.715 | 0.236 | 0.228 | 0.222 | 0.204 | 0.248 | 0.762 | 0.742 | 0.807 | 0.768 | 0.625 | 0.831 | 1.01 | 0.94 | – | 0.872
HCC-44 | – | – | 1.01 | 0.925 | 1.01 | 0.615 | 0.607 | 0.676 | 0.68 | 0.692 | 0.958 | 0.97 | 0.979 | 1 | 1.05 | 0.72 | 0.966 | 0.826 | 0.909 | 0.863
HCC-78 | 0.486 | 0.504 | 0.498 | 0.472 | 0.526 | 0.914 | 0.927 | 0.949 | 0.93 | – | 0.765 | 0.82 | 0.865 | 0.866 | 0.891 | 0.364 | 0.321 | 0.419 | – | –
